{
  "source": "patent US20250127906A1",
  "about": "“SMALL-MOLECULE DEGRADERS OF CDK8 AND CDK19” (University of South Carolina, priority 2021, published 2025)",
  "key": {"CDK8": {"molecular_target": "CDK8 (Homo sapiens, UniProt P49336)", "sequence (P49336 whole entry)": "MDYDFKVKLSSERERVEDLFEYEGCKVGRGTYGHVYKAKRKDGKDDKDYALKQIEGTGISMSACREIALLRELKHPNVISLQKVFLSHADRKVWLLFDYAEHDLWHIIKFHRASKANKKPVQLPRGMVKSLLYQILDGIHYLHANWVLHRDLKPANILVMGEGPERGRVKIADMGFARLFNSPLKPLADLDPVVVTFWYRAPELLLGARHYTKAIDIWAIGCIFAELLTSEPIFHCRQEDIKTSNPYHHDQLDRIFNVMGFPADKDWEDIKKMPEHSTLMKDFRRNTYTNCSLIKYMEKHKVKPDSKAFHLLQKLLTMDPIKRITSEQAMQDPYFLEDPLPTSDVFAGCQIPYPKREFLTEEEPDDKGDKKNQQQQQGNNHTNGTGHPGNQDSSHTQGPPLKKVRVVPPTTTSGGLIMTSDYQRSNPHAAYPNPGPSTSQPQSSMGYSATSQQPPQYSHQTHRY", "sequence (P24863 whole entry partner)": "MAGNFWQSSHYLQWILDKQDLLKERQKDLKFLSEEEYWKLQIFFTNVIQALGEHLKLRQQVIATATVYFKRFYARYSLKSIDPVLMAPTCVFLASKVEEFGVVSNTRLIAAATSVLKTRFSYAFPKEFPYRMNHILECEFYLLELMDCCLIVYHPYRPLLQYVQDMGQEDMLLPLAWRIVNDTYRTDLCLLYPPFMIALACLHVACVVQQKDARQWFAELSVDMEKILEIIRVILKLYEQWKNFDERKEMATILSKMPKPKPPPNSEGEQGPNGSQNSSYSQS", "assay": "CDK8 degradation in HEK-293 cells (Western blot, normalized by GAPDH)", "assay_type": "cell-based", "parameters": "endogenous in cells; host or cells: HEK-293", "how_it_was_run": "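HEK-293 cells were treated for 24 h with or without compound, at 1 μM or 0.3 μM for single-point testing. RIPA lysates were immunoblotted for CDK8, and densitometry gave levels normalized to GAPDH. DC50 is the concentration that reduces CDK8 to half its level in untreated cells.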"}, "Jurkat cells": {"test_system": "Jurkat cells", "assay": "Wash-off growth study in Jurkat cells", "assay_type": "cell-based, human", "details": "pre-treated 200 nM for 8 days, then drug-free vs drug-containing media for 8 days", "procedure": "We also compared the stability of short-term growth inhibition induced by a PROTAC and a kinase inhibitor in a wash-off study in Jurkat cells. In the experiment shown in FIG. 11C, Jurkat cells were pre-treated with 200 nM BI-1347 or IA7886 for 8 days before removal of drug-containing media and further cultured in either drug-containing (200 nM) or drug-free media for 8 days before counting cell numbers. Removal of BI-1347 led to 7.1 fold increase of the cell number while removal of IA7886 increased the cell number only 1.8 fold (FIG. 11C)."}, "SK-MM-2 cells": {"test_system": "SK-MM-2 cells", "assay": "SK-MM-2 multiple myeloma cell growth over 20 days continuous treatment", "assay_type": "cell-based", "details": "BI1347 200 nM, Senexin C 1 μM, IA7886 200 nM, IA7843 1 μM", "procedure": "The following CDK8/19 kinase inhibitors were tested for their effects on MM cell lines over 20 days continuous treatment: CDK8/19 kinase inhibitors BI1347 (200 nM) and Senexin C (1 μM), BI1347-derived PROTAC IA7886 (200 nM) and Senexin C-derived PROTAC IA7843 (1 μM). 1-4 million cells were treated with vehicle control (0.1% DMSO), or CDK8/19 kinase inhibitors or PROTACs for 20 days. Every 4 days, cells were counted using BioRAD TC20 Automated Cell Counter with trypan blue staining, and the same number of cells were passaged to a new T25 flask to propagate under the same treatment conditions."}, "[1]": {"test_system": "CDK8/CDK19/CCNC protein degradation and STAT1 S727 phosphorylation", "assay": "Wash-off study in HEK-293 cells, Western blot", "assay_type": "cell-based, human", "details": "HEK-293, within 24 hours after removal of drug-containing media"}},
  "data": [
    {"smiles": "O=C(CCCNc1cccc2c1C(=O)N(C1CCC(=O)NC1=O)C2=O)NCCCCCCCCCCC(=O)N1CCN(C(=O)Cn2cc(-c3ccc(-c4cncc5ccccc45)cc3)cn2)CC1", "note": "(stereo not shown) [IA7886, 4-[[2-(2,6-dioxo-3-piperidyl)-1,3-dioxo-isoindolin-4-yl]amino]-N-[11-[4-[2-[4-[4-(4-isoquinolyl)phenyl]pyrazol-1-yl]acetyl]piperazin-1-yl]-11-oxo-undecyl]butanamide]", "values": [
      {"measurement": "% CDK8 remaining", "setting": "CDK8; HEK-293 cells, 24 hours, tested at 1 μM", "result": 19, "unit": "%"},
      {"measurement": "CDK8 degradation (in words)", "setting": "CDK8; HEK-293 cells, Western blot", "result": "most potent CDK8 degrader in this set"},
      {"measurement": "DC50", "setting": "CDK8; HEK-293 cells, concentration degrading CDK8 to half of level in untreated cells", "result": 2.8, "unit": "nM"},
      {"measurement": "time at which CDK8 degradation reaches maximum", "setting": "CDK8; human 293 cells, 100 nM", "result": "about 8 hrs"},
      {"measurement": "increase of the cell number upon removal of drug", "setting": "Jurkat cells", "result": 1.8, "unit": "fold"},
      {"measurement": "growth inhibition over 20 days, order of efficacy", "setting": "SK-MM-2 cells", "result": "BI1347<IA7886<Senexin C<IA7843"},
      {"measurement": "effects on CDK8/CDK19/CCNC protein degradation and STAT1 S727 phosphorylation after removal of drug", "setting": "[1]", "result": "remained nearly unchanged"}
    ]}
  ]
}
